The results in this text go back to publication PMC10970924 (Life, 2024).

A word on the EC50: it is the concentration needed to bring the measured effect to its halfway point.

Read-outs that look alike come from different tables or passages of the source. Where only a bound is given, the exact number is not on record here.

In data set [1] the test system is PC-3. The data set can be described thus: Colony formation assay. The settings on record: Homo sapiens, PC-3, 72 h, read-out: Inhibitory concentration IC50, PC-3. It is filed as cell-based. On the procedure:
(§1) Cells were cultured in a 24-well plate with 1 mL of DMEM nutrient medium for 24 h. […] The experiment was conducted in triplicate and in two or three independent repetitions. Only solvent was added to the control wells instead of the test compounds. Incubation with the drugs continued for three days, after which the grown colonies were washed with cold PBS solution and fixed in a fixing buffer (10% acetic acid, 10% methanol in distilled water) for 15 min. The colonies were stained with a 0.4% solution of crystal violet in 20% ethanol for 30 min and then washed 3 times with dH2O and analyzed under a microscope. The colonies were then dissolved in 10% acetic acid for 40 min on a shaker, and the absorbance of the lysate was read at 590 nm. Results were expressed as a percentage relative to the control, and a dose–response curve was plotted to determine the IC50 value.

Data set [2] deals with MCF-7. The data set can be described thus: Colony formation assay. Type of data set: cell-based. The settings on record: Homo sapiens, MCF7, 72 h, read-out: Inhibitory concentration IC50, MCF-7. On the procedure: as §1
The subject of data set [3] is HCT-116. The data set is described as follows: Colony formation assay. It is filed as cell-based. The settings on record: Homo sapiens, HCT-116, 72 h, read-out: Inhibitory concentration IC50, HCT-116. As to the method:
as §1

The nature of data set [4]: Neutralization of the ABTS radical. The settings on record: for EC50: 37 °C, 15 min, 738 nm, read-out: EC50 of half-maximal ABTS radical inhibition; for Trolox Equivalent Antioxidant Capacity (TEAC): ABTS radical neutralization, relative to Trolox. As to the method:
Initially, an ABTS solution was prepared in water at a concentration of 7 mM. Subsequently, the radical cation ABTS^•+ was generated by mixing the original ABTS solution with 2.45 mM ammonium persulfate at a 1:1 ratio. This mixture was then allowed to stand in the dark at room temperature for 12–16 h before use. The diluted ABTS^•+ solution was prepared in a methanol/water mixture (1:1) reaching an optical density of 0.7 units at 738 nm (~0.7 mM). Next, various concentrations of compounds (ranging from 1000, 500, 250, 125, 62.5, 31.2, 15.6, to 7.8 μM) in a volume of 130 µL in a methanol/water mixture (1:1) were mixed with the ABTS radical cation solution (~0.7 mM) in a volume of 130 µL. The mixture was then incubated at 37 °C in a water bath for 15 min. The optical density was measured at 738 nm using the Infinite M200 PRO (TECAN, Zürich, Switzerland) plate reader. The percentage inhibition of ABTS absorption relative to the control was calculated. A percent inhibition vs. antioxidant concentration graph was plotted and the concentration of the antioxidant that suppresses the optical density of the ABTS radical by 50% (EC50) was determined. The Trolox Equivalent Antioxidant Capacity (TEAC) was also calculated.

Data set [5] relates to genomic DNA from chicken erythrocytes. The data set can be described thus: Agarose gel electrophoresis of DNA compositions. It is filed as binding. The conditions noted are these: DNA 30 μg/mL; for Interaction with DNA (in words): 11.2 to 180 μM.
Procedure: The mixtures were then incubated for 30 min. To visualize nucleic acids, the intercalating dye SYBR Green was added at a ratio of 1:10 to the final volume, and the mixtures were incubated in the dark for an additional 15 min. […] The electrolyte used was TAE buffer (pH 8.0).
In data set [6] the test system is porcine neuronal tubulin. The data set is described as follows: Tubulin polymerization assay (Cytoskeleton kit). It is filed as biochemical. The conditions noted are these: effector 10 µM; for Maximum Initial Rate of Polymerization V Max: tubulin 3 mg/mL, 37 °C. On the procedure: To assess the effect of the test compounds on tubulin polymerization, a test kit from Cytoskeleton was used. The plate was pre-warmed to 37 °C for 20 min before starting the assay. Then, 10 µL of the compound of interest, at a 10-fold concentration in an assay buffer, was pipetted into the plate. For comparison, paclitaxel, a polymerization enhancer, and vinblastine, a tubulin polymerization inhibitor, were used. Both effectors were used at a concentration of 10 µM. The assay buffer served as a control. The plate was then incubated at 37 °C for 2 min, after which 100 µL of the diluted tubulin solution (containing 3 mg/mL of tubulin in 80 mM PIPES pH 6.9, 2 mM MgCl2, 0.5 mM EGTA, 1 mM GTP, and 7% glycerol) was added. The plate was then immediately placed in the plate reader. Absorbance was measured at 340 nm every minute for 61 readings on a Varioskan LUX (Thermo Scientific, Waltham, MA, USA) plate reader.

Data set [7] is described as follows: MTS cytotoxicity assay. From the text: (§2) The study utilized human cell lines including PC-3 (human prostate adenocarcinoma), HSF (primary human skin fibroblasts), MDA-MB-231 (estrogen-negative breast adenocarcinoma), MCF-7 (estrogen-positive breast adenocarcinoma), MSC (multipotent stem cells derived from adipose tissue), SF-539 (brain gliosarcoma), SNB-19 (glioblastoma), A-498 (kidney carcinoma), M-14 (human melanoma), NCI-H322-M (primary bronchioalveolar carcinoma), HCT-15 (colon adenocarcinoma), and HCT-116 (colorectal intestinal carcinoma). We also used immortalized C2C12 mouse myoblasts (ATCC—CRL-1772). Cancer cell lines were obtained from the ATCC collection and generously provided by the Fox Chase Cancer Center (Philadelphia, USA). Conditionally normal cells, including skin fibroblasts and multipotent stem cells, were isolated by our group from postoperative materials (skin and subcutaneous fat) obtained from a conditionally healthy donor. Reagents and consumables for cell culture work were purchased from PanEco (Russia).
(§3) The cytotoxicity of the compounds under study was assessed using MTS assay on cell cultures. Cells were seeded into 96-well plates at a concentration of 10,000–20,000 cells/mL. After 24 h, gradient concentrations of the compounds were added to the culture medium and the plates were incubated for 72 h. Subsequently, the culture medium was replaced with MTS reagents (Sigma-Aldrich, Burlington, MA, USA) (MTS:PMS (0.18:0.0092 mg/mL)) and dissolved in phenol-free RPMI 1640 medium. After 2 h of incubation, the resulting water-soluble formazan was measured using the TECAN Infinite M200 Pro microplate reader at wavelengths of 555/750 nm. As a control, equivalent volumes of the solvents in which each compound was dissolved (dH2O/DMSO) were used. To calculate the percentage of viable cells relative to the control, which was considered 100%, dose-response curves were plotted against the logarithm of the compound concentration. The concentration of the compound at which cell growth is inhibited by 50% relative to the control was taken as the inhibitory concentration IC50 and calculated using Origin Pro software 8.0.1. The study was conducted in triplicates and in three independent repetitions.
Background: Tetrazolium assays rely on reduction of a dye to a coloured formazan, in cell work by metabolically active cells.

Data set [8] concerns SF-539. The data set is described as follows: MTS cytotoxicity assay. The conditions noted are these: Homo sapiens, SF-539, 72 h, read-out: Cytotoxic concentration IC50, SF-539.
Text: as §2, §3

Data set [9] has as its system MCF-7. The data set is described as follows: MTS cytotoxicity assay. The settings on record: for IC50: Homo sapiens; for Selectivity index IC50 HSF/IC50 MCF-7: from the mean IC50 value for HSF cells.
Text: as §2, §3

Data set [10] concerns HCT-15. The data set can be described thus: MTS cytotoxicity assay. The settings on record: Homo sapiens, HCT-15, 72 h, read-out: Cytotoxic concentration IC50, HCT-15.
Text: as §2, §3

Data set [11] concerns MDA-MB-231. The data set is described as follows: MTS cytotoxicity assay. The conditions noted are these: Homo sapiens, MDA-MB-231, 72 h, read-out: Cytotoxic concentration IC50, MDA-MB-231.
Text: as §2, §3

Where [12] appears, read: MCF7, 72 h, read-out: Cytotoxic concentration IC50, MCF-7.
Setting [13] is: colony formation assay, incubation three days.
Where [14] appears, read: test concentration selected based on MTS data.

Take `COc1cccc2c1C(=O)c1c(O)c3c(c(O)c1C2=O)CC(O)(C(=O)CO)CC3OC1CC(NC(=O)c2cnc(C)c3c2COC(C)(C)O3)C(O)C(C)O1` (centres unmarked) [DOX-1, N-(3-hydroxy-2-methyl-6-((3,5,12-trihydroxy-3-(2-hydroxyacetyl)-10-methoxy-6,11-dioxo-1,2,3,4,6,11-hexahydrotetracen-1-yl)oxy)tetrahydro-2H-pyran-4-yl)-2,2,8-trimethyl-4H-[1,3]dioxino[4,5-c]pyridine-5-carboxamide]: the IC50 in [1] was 3.2 ± 0.31 µM; in data set [2], 0.87 ± 0.12 µM; in data set [3], 4.42 ± 3.02 µM; in data set [8], 2.06 ± 0.18 µM; in [9] (setting [12]) it was 1.88 ± 0.48 µM; in [10], above 100 µM. Besides, the IC50 in [11] is 4.05 ± 0.96 µM. Also, in data set [4], the concentration for a half-maximal effect (EC50) is 4.5 ± 0.5 µM. Further, the “Trolox Equivalent Antioxidant Capacity (TEAC)” value in data set [4] amounted to 3.49. In data set [5], the “Interaction with DNA (in words)” value is recorded as “do not interact with DNA”. Besides, the “Impact on tubulin polymerization (in words)” value (shortened to “Impact”) in [6] was “no statistically significant impact”. In addition, the “Maximum Initial Rate of Polymerization V Max” value (from here on “Maximum Initial Rate”) in [6] is on record as 5.5 mOD/Min. Besides, the IC50 at 72 h in [7] (mouse) turned out to be 0.23 ± 0.16 µM. Further, the “Times less potent than unmodified doxorubicin, MCF-7” value in data set [9] (MTS assay) turned out to be 20.9. For the same molecule, in [9] (MTS assay), the “Selectivity index IC50 HSF/IC50 MCF-7” value worked out at 3.32 ± 0.87.

Take `COc1cccc2c1C(=O)c1c(O)c3c(c(O)c1C2=O)C[C@@](O)(C(=O)CO)C[C@@H]3O[C@H]1C[C@H](N)[C@H](O)[C@H](C)O1` [DOX, Doxorubicin, reference compound]: the IC50 was 1.17 ± 0.48 µM in data set [1] (setting [13]); 0.06 ± 0.003 µM in data set [2] (setting [13]); 0.62 ± 0.14 µM in [3] (setting [13]); 0.53 ± 0.35 µM in data set [8]; 0.09 ± 0.05 µM in [9] (setting [12]); 0.05 µM in [9] (MCF7, read-out: IC50, MCF-7). Besides, the figures for the IC50 in [10] and in [11] were 0.46 ± 0.16 µM and 0.73 ± 0.25 µM, respectively. Further, the EC50 in data set [4] is 6.7 ± 0.7 µM. The “Trolox Equivalent Antioxidant Capacity (TEAC)” value in data set [4] was determined as 2.34. Also, the “Concentration sufficient to completely prevent migration of DNA” value in [5] (agarose gel) turned out to be 15 µM. Further, in data set [6], the “Impact” value is “no statistically significant impact”. Further, in data set [6], the “Maximum Initial Rate” value is on record as 5.5 mOD/Min. Further, the IC50 at 72 h was determined as 1.12 ± 0.66 µM in data set [7] (human, HSF primary skin fibroblasts) and 0.045 ± 0.004 µM in [7] (mouse, C2C12 immortalized myoblasts). In addition, the “IC10, MCF-7” value in [9] (setting [14]) was found to be 0.01 µM. For the same molecule, in data set [9] (setting [14]), the “IC25, MCF-7” value was 0.02 µM. The “IC70, MCF-7” value in data set [9] (setting [14]) came to 0.2 µM.

In the case of `COc1cccc2c1C(=O)c1c(O)c3c(c(O)c1C2=O)CC(O)(C(=O)CO)CC3OC1CC(NC(=O)/C=C/c2cnc(C)c3c2COC(C)(C)O3)C(O)C(C)O1` (centres unmarked) [DOX-2, (E)-N-(3-hydroxy-2-methyl-6-((3,5,12-trihydroxy-3-(2-hydroxyacetyl)-10-methoxy-6,11-dioxo-1,2,3,4,6,11-hexahydrotetracen-1-yl)oxy)tetrahydro-2H-pyran-4-yl)-3-(2,2,8-trimethyl-4H-[1,3]dioxino[4,5-c]pyridin-5-yl)acrylamide], the IC50 in [1] is 1.66 ± 0.82 µM; in [2] it was 1.63 ± 0.04 µM; in data set [3], 0.91 ± 0.39 µM; in [8], 1.74 ± 0.11 µM; in data set [9] (setting [12]), 0.77 ± 0.15 µM; in [10] it was above 200 µM. Further, in data set [11], the IC50 was 1.58 ± 1.03 µM. In data set [4], the EC50 was found to be 18.9 ± 6.8 µM. Besides, the “Trolox Equivalent Antioxidant Capacity (TEAC)” value in [4] turned out to be 0.83. The “Interaction with DNA (in words)” value in [5] is on record as “do not interact with DNA”. The “Impact” value in data set [6] is reported as “no statistically significant impact”. The “Maximum Initial Rate” value in [6] was found to be 6.8 mOD/Min. Moreover, the IC50 at 72 h was above 200 µM in [7] (human) and 2.8 ± 1.71 µM in data set [7] (mouse). In [9] (MTS assay), the “Selectivity index for MCF-7, times greater than that of doxorubicin” value is reported as 15. Moreover, the “Times less potent than unmodified doxorubicin, MCF-7” value in data set [9] (MTS assay) stood at 8.5. Moreover, in [9] (MTS assay), the “Selectivity index IC50 HSF/IC50 MCF-7” value is reported as above 260.
